Source: ChEMBL document CHEMBL5244229, “Thiazole-containing compounds as therapeutic targets for cancer therapy” (Eur J Med Chem, 2020)
Values belong to the compound of their own block, whether it stands above or below them.

Experiments:
[1] = tested on: Panel NCI-60 (60 carcinoma cell lines); assay: Antiproliferative activity against human Panel NCI-60 (60 carcinoma cell lines) assessed as cell growth inhibition; assay type: functional
[2] = tested on: SF-268; assay: Antitumor activity against human SF-268 cells; assay type: functional
[3] = tested on: HepG2; assay: Cytotoxicity against human HepG2 cells assessed as reduction in cell viability measured after 48 hrs by MTS assay; assay type: functional, cell-based; details: HepG2, 48 h
[4] = tested on: MDA-MB-231; assay: Antiproliferative activity against human MDA-MB-231 cells assessed as reduction in cell viability incubated for 2 days by MTT assay; assay type: functional, cell-based; details: MDA-MB-231, 48 h
[5] = tested on: Jurkat; assay: Antiproliferative activity against human Jurkat cells assessed as reduction in cell viability incubated for 2 days by MTT assay; assay type: functional, cell-based; details: 48 h
[6] = tested on: MCF7; assay: Antitumor activity against human MCF7 cells; assay type: functional, cell-based
[7] = tested on: HepG2; assay: Antitumor activity against human HepG2 cells; assay type: functional, cell-based
[8] = tested on: Colon cell line; assay: Cytotoxicity against human Colon cell line; assay type: functional, cell-based
[9] = tested on: A549; assay: Anticancer activity against human A549 cells; assay type: functional, cell-based
[10] = tested on: MCF7; assay: Anticancer activity against human MCF7 cells; assay type: functional, cell-based
[11] = tested on: NCI-H460; assay: Cytotoxicity against human NCI-H460 cells assessed as reduction in cell viability by MTS assay; assay type: functional
[12] = tested on: MCF7; assay: Cytotoxicity against human MCF7 cells assessed as reduction in cell viability by MTS assay; assay type: functional
[13] = tested on: SF-268; assay: Cytotoxicity against human SF-268 cells assessed as reduction in cell viability by MTS assay; assay type: functional
[14] = tested on: HepG2; assay: Anticancer activity against human HepG2 cells; assay type: functional, cell-based
[15] = target: Vascular endothelial growth factor receptor 2 (Homo sapiens) (UniProt P35968); assay: Inhibition of VEGFR2 (unknown origin) at 20 uM using 5-FAM-KKKKEEIYFFF-CONH2 as substrate incubated for 1 hr in presence of ATP by kinase glo-assay relative to control
Chain of Vascular endothelial growth factor receptor 2 (Homo sapiens) (P35968 whole entry): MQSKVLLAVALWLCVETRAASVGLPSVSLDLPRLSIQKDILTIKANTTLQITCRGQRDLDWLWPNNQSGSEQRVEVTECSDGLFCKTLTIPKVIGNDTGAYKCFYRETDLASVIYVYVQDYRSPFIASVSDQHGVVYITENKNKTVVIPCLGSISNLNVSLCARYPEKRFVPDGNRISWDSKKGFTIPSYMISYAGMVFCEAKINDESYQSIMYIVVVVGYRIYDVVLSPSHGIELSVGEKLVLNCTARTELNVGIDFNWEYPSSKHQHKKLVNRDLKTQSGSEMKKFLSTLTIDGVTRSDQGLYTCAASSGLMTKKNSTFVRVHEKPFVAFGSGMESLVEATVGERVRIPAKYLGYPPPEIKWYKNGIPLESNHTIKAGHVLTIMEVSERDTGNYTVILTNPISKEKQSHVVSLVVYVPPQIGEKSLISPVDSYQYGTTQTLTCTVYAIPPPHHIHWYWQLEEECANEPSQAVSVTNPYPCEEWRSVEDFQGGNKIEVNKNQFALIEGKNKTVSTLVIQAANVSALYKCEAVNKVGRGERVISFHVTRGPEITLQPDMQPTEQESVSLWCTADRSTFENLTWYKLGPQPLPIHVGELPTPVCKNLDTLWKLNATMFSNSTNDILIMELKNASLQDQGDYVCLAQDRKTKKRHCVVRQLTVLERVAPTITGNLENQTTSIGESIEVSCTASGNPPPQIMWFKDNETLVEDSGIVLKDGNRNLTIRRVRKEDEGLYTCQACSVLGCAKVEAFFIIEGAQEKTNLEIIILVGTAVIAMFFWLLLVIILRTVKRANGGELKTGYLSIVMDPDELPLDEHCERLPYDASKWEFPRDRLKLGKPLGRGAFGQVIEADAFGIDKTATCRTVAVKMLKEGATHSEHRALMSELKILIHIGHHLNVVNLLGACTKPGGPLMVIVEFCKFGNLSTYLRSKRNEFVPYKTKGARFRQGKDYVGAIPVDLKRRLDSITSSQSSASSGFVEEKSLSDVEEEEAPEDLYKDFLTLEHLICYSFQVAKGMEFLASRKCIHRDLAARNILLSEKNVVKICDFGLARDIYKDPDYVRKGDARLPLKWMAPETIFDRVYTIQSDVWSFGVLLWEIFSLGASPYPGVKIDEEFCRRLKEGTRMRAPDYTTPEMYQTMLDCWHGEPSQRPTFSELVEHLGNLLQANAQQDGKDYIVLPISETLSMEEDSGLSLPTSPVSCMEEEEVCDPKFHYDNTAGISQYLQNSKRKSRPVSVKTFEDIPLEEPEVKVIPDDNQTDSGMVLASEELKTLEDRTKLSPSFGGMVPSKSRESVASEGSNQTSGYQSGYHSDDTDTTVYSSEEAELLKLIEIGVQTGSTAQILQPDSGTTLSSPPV

[16] = tested on: MCF7; assay: Cytotoxicity against human MCF7 cells assessed as reduction in cell viability incubated for 48 hrs by MTT assay; assay type: functional
[17] = tested on: NCI-H460; assay: Cytotoxicity against human NCI-H460 cells assessed as reduction in cell viability incubated for 48 hrs by MTT assay; assay type: functional
[18] = tested on: MDA-MB-435; assay: Cytotoxicity against human MDA-MB-435 cells; assay type: functional, cell-based
[19] = tested on: HL-60; assay: Cytotoxicity against human HL-60 cells; assay type: functional, cell-based
[20] = tested on: SF-295; assay: Cytotoxicity against human SF-295 cells; assay type: functional, cell-based
[21] = tested on: Panel NCI-60 (60 carcinoma cell lines); assay: Antitumor activity against human Panel NCI-60 (60 carcinoma cell lines) cells; assay type: functional
[22] = tested on: HCT-116; assay: Anticancer activity against human HCT-116 cells; assay type: functional, cell-based
[23] = tested on: K562; assay: Anticancer activity against human K562 cells; assay type: functional, cell-based
[24] = tested on: SMMC-7721; assay: Cytotoxicity against human SMMC-7721 cells; assay type: functional, cell-based
[25] = tested on: SNU-638; assay: Cytotoxicity against human SNU-638 cells; assay type: functional, cell-based
[26] = tested on: HepG2; assay: Cytotoxicity against human HepG2 cells; assay type: functional, cell-based
[27] = tested on: MKN-74; assay: Cytotoxicity against human MKN-74 cells; assay type: functional, cell-based
[28] = tested on: Hep 3B2; assay: Cytotoxicity against human Hep3B cells; assay type: functional, cell-based
[29] = tested on: AGS; assay: Cytotoxicity against human AGS cells; assay type: functional, cell-based
[30] = tested on: SK-HEP1; assay: Cytotoxicity against human SK-HEP1 cells; assay type: functional, cell-based
[31] = Cytotoxicity against human SNU-216 cells; assay type: functional, cell-based
[32] = tested on: NCI-H460; assay: Antitumor activity against human NCI-H460 cells; assay type: functional, cell-based

Structure (SMILES): Cn1cc(-c2csc(-c3cn(C)c4ncccc34)n2)c2ccccc21
GI50 [1]: 30 nM

Structure (SMILES): N#CC(C#N)=C1SC(n2nc(O)cc2N)=CN1c1ccccc1
GI50 [2]: 10 nM

Structure (SMILES): COc1ccc(/C=C(/C#N)c2nc(-c3cc4ccccc4oc3=O)cs2)cc1OC
IC50 [3]: 2890 nM

IC50 [4]: 38000 nM
IC50 [5]: 17000 nM
Structure (SMILES): CCC[C@H](NS(=O)(=O)c1ccc(C)cc1)[C@]1(c2ccccc2Cl)N=C(SCC)SC1=O

IC50 [6]: 1120 nM
IC50 [7]: 3410 nM
Structure (SMILES): C/C(=N/Nc1nc(C)c(/N=N/c2ccccc2)s1)c1nnn(-c2ccccc2)c1C

Structure (SMILES): COc1ccc(/C=C(/C#N)c2nc(-c3cc4ccccc4oc3=O)cs2)cc1
IC50 [3]: 2330 nM

Structure (SMILES): O=C1NC(=O)/C(=C/c2ccccc2Cl)S1
IC [8]: 10 µg/mL

IC50 [9]: 5000 nM
IC50 [10]: 5000 nM
Structure (SMILES): O=C(NNc1nc(-c2ccc3ccccc3c2)cs1)N1N=C(c2ccccc2)CC1c1ccc(Cl)cc1 (stereo unspecified)

IC50 [7]: 820 nM
Structure (SMILES): CCOC(=O)c1nn(-c2ccc(Cl)cc2Cl)/c(=N/NC(=O)c2sc(-c3ccccc3)nc2C)s1

Structure (SMILES): C/C(=N\N=c1/scc(-c2ccc(Cl)cc2)n1-c1ccccc1)C1CC[C@@]2(C)[C@]3(C)CC=C4C[C@@H](O)CC[C@]4(C)[C@@]3(C)CC[C@]12C (stereo partly specified)
GI50 [11]: 200 nM
GI50 [12]: 200 nM
GI50 [13]: 800 nM

IC50 [14]: 10800 nM
Structure (SMILES): Cc1ccc(-c2nc(C(=O)Nc3ccc([N+](=O)[O-])cc3)cs2)cc1
IC50 ([8]; Homo sapiens, Colon cell line): 10800 nM

Structure (SMILES): C/C(=N\N=c1/scc(-c2ccc(Br)cc2)n1-c1ccccc1)C1CC[C@@]2(C)[C@]3(C)CC=C4C[C@@H](O)CC[C@]4(C)[C@@]3(C)CC[C@]12C (stereo partly specified)
GI50 [11]: 600 nM
GI50 [12]: 600 nM
GI50 [13]: 400 nM

inhibition [15]: 3.76%
Structure (SMILES): O=C(Cc1csc2nc(-c3ccccc3)cn12)Nc1ccc(N2CCOCC2)nc1

Structure (SMILES): CC1=CS/C(=C(/C#N)C(=O)N/N=C(\C)C2CC[C@@]3(C)[C@]4(C)CC=C5C[C@@H](O)CC[C@]5(C)[C@@]4(C)CC[C@]23C)N1c1ccccc1 (stereo partly specified)
GI50 [16]: 20 nM
GI50 [17]: 10 nM

Structure (SMILES): Nc1nc(-c2ccc(Oc3ccc(Cl)c(Cl)c3)cc2)cs1
IC50 [18]: 759 nM

Structure (SMILES): O=c1c2c[nH]c3ccc(Br)cc3c-2nn1-c1nc2ccccc2s1
IC50 [19]: < 5 µg/mL
IC50 [20]: < 5 µg/mL
IC50 [18]: < 5 µg/mL

Structure (SMILES): Cn1c(-c2csc(-c3c[nH]c4ncccc34)n2)cc2cc(Br)cnc21
GI50 [21]: 810 nM

IC50 [4]: 41000 nM
IC50 [5]: 19000 nM
Structure (SMILES): CCC[C@H](NS(=O)(=O)c1ccc(C)cc1)[C@]1(c2ccccc2Br)N=C(SCC)SC1=O

IC50 [14]: 150 nM
IC50 [22]: 1370 nM
IC50 [23]: 20 nM
Structure (SMILES): Cc1nc(N2N=C(c3cccs3)CC2c2ccc(C3CC(c4cccs4)=NN3c3nc(C)c(/N=N/c4ccc([N+](=O)[O-])cc4)s3)cc2)sc1/N=N/c1ccc([N+](=O)[O-])cc1 (stereo unspecified)
IC50 [24]: 3000 nM
IC50 [3]: 1370 nM

Structure (SMILES): C=C(NC(=O)C(=C)NC(=O)c1ccc2c(n1)-c1coc(n1)C(=O)NC(=O)CNC(=O)c1coc(n1)C(=C)NC(=O)[C@H](C(C)(C)O)NC(=O)C(=O)NC(=O)c1nc(oc1C)/C(=C\C)NC[C@H](C(C)C)NC(=O)c1csc-2n1)C(N)=O
IC50 [25]: 750 nM
IC50 [26]: 1300 nM
IC50 [27]: 2430 nM
IC50 [28]: 1040 nM
IC50 [29]: 990 nM
IC50 [30]: 990 nM
IC50 [31]: 880 nM

IC50 [32]: 1300 nM
Structure (SMILES): CCn1c(=O)/c(=C2\Sc3ccccc3N2C)s/c1=C\c1cccc[n+]1CC

IC50 [9]: 5000 nM
IC50 [10]: 5000 nM
Structure (SMILES): O=C(NNc1nc(-c2ccc(Cl)cc2)cs1)N1N=C(c2ccccc2)CC1c1ccccc1 (stereo unspecified)

Structure (SMILES): CC(=O)C(C(C)=O)=C1SC(n2nc(O)cc2N)=CN1c1ccccc1
GI50 [2]: 10 nM
